Laboratory results taken from a melting point compilation (Tetko et al.; mined from patent text by program, amines drawn as free bases though some values may be those of a salt).

Work on O=C(c1ccc([N+](=O)[O-])cc1[N+](=O)[O-])N1CCOCC1 yielded a melting point of 159 to 161 °C.
Cc1ccc(N(C)c2ccco2)cc1O gave a melting point of 127 to 128 °C.
O=C1CC2(CCC2)C(CC(Cl)(Cl)Cl)O1 (configuration not stated) showed a melting point of 86.5 to 87.5 °C.
COc1cccc(Cc2cc3cccc(-c4cccc(C(=O)O)c4)c3o2)c1 gave a melting point of 127 to 129 °C.
With O=C(Oc1ccccc1Br)c1cc(-c2ccccc2)cn1CCc1ccccc1Br the melting point was 90 to 92 °C.
Work on CCN(CC)CCNC(=O)c1cc(I)cc2c(F)ccnc12 yielded a melting point of 79 to 81 °C.
Molecule Clc1cc2nc(-c3csc(Cc4c(Cl)cccc4Cl)n3)[nH]c2cc1Cl has a melting point of 245 to 247 °C.
In the case of O=C1[C@@H]2CSC(c3ccccc3)N2C(=O)N1Cc1ccccc1 (some centres not stated), the melting point is reported as 79 °C.
Work on Cc1ccc(C2(Br)C(=O)NC(=O)NC2=O)cc1 yielded a melting point of 210 to 213 °C.
For CS(=O)(=O)c1ccc(-c2oc3ccccc3c(=O)c2-c2cnccc2Cl)cc1, the melting point was 232 to 233 °C.
Work on CCOC(=O)C1=C(C)Nc2cc[nH]c(=O)c2C1c1cccs1 (configuration not stated) yielded a melting point of 284 to 285 °C.
In the case of CC(=NOCCO)c1ccc(-c2ccc(C(F)(F)F)cc2)cc1, the melting point is reported as 108 to 111 °C.
Work on Cn1nc(-c2ccc3ccccc3c2)n(C)c1=S yielded a melting point of 173 to 175 °C.
Work on C1=C(c2cc3ccccc3[nH]2)CCN(CCC2Cc3ccccc3C2)C1 yielded a melting point of 175 to 176 °C.
Work on CN1CCC(c2c[nH]c3ccc(OS(=O)(=O)c4ccc(I)cc4)cc23)CC1 yielded a melting point of 174 to 176 °C.
Work on CN1CCC(C2c3cccc4c3N(CC4)c3ccccc3N2C)CC1 (configuration not stated) yielded a melting point of 138 to 139 °C.
NC(=O)C(CCCCCOc1cccc([N+](=O)[O-])c1C=O)C1NCCc2ccccc21 (configuration not stated) showed a melting point of 99 to 100 °C.
Work on COc1cccc(Cl)c1-c1cc2c(c3c1C(=O)NC3=O)c1cc(O)ccc1n2CCCBr yielded a melting point of 286 to 288 °C.
CCOc1cc(-c2nnc3c4ccccc4c(OCc4ncnn4C)nn23)no1 showed a melting point of 223 to 225 °C.
In the case of CCOC(=O)c1cc(=O)c2ccc(OC(=S)N(C)C)cc2o1, the melting point is reported as 160 to 161 °C.
Cc1ccc2cccc(OCc3cccc(N(C)C(=O)CN4C(=O)c5ccccc5C4=O)c3C)c2n1 gave a melting point of 158 to 161 °C.
Molecule N=C(N)c1ccc(C(=O)N[C@@H](Cc2ccccc2)C(=O)N2CCc3nn(CC(=O)O)cc3C2)cc1 has a melting point of 146 to 150 °C.
Work on COc1cc2c(cc1Nc1ncc(Cl)c(N[C@@H]3[C@H](C(N)=O)[C@H]4C=C[C@@H]3C4)n1)CCOC(=O)N2C yielded a melting point of 168 to 170 °C.
In the case of O=S(=O)(c1cccs1)c1ccc(O)c(Cl)c1Cl, the melting point is reported as 220 °C.
Work on CC(C)(C)c1nc(N)nc(C(C)(C)C)c1O yielded a melting point of 92 to 93 °C.
Molecule CCOC(=O)c1c(N2CCN(C)CC2)c2cnc(-c3ccccc3)nc2n(CC)c1=O has a melting point of 180 to 185 °C.
With O=C1C2CCCC2=Nc2ccccc2N1Cc1ccccc1F (configuration not stated) the melting point was 135 to 137 °C.
Work on N#Cc1ccc(-c2ccc(OCc3ccccc3)cc2)cc1 yielded a melting point of 150 to 152 °C.
With COc1cccnc1C(O)c1ccc(NC(=O)C2=Cc3cc(-c4ccc(C)cc4)ccc3OCC2)cc1 (configuration not stated) the melting point was 232 to 233 °C.
In the case of CCCCNc1cc(-c2nc(N)n[nH]2)ccn1, the melting point is reported as 268 to 270 °C.
For COC(=O)C1=CCCN(C2CCc3ccc(OC)cc3C2)C1 (configuration not stated), the melting point was 65 to 66 °C.
C[C@H]1CCCC(C)(C)[C@@H]1C(=O)c1c(F)c(F)c(F)c(F)c1F showed a melting point of 35.2 to 38 °C.
Molecule NC(=O)c1ccc(F)c2c1OCC(N(CCCc1c[nH]c3ccc(F)cc13)CC1CC1)C2 (configuration not stated) has a melting point of 123 °C.
Work on CC1CCN(C(=O)[C@H](CCCNc2ncccn2)NS(=O)(=O)c2ccc3ccccc3c2)CC1 yielded a melting point of 98 to 100 °C.
In the case of Cc1cccc(NC(=O)NCC(=O)N(CC(=O)OC(C)(C)C)c2ccccc2)c1, the melting point is reported as 180 °C.
In the case of CCCCC(O)c1cn(C(c2ccccc2)(c2ccccc2)c2ccccc2)cn1 (configuration not stated), the melting point is reported as 119 to 120 °C.
Molecule Cc1cc(Nc2ccccc2C(=O)O)n(Cc2cccnc2)n1 has a melting point of 180 to 183 °C.
Molecule CCCCc1nn(-c2cc([N+](=O)[O-])ccc2Br)c(=O)n1Cc1ccc(-c2ccccc2S(=O)(=O)NC(C)(C)C)cc1F has a melting point of 137 to 139 °C.
Work on O=c1[nH]c2ccccc2c(=O)n1CCCN1CCC(OC(c2ccccc2)c2ccccc2)CC1 yielded a melting point of 173 to 175 °C.
In the case of COCc1nc(OC)c(NS(=O)(=O)c2cccc(Cl)c2Cl)nc1Cl, the melting point is reported as 193 to 196 °C.
CCOC(=O)c1nc(C)n2c1CN=C(c1ccccc1F)c1cc(C#N)ccc1-2 showed a melting point of 272 to 274 °C.
In the case of COc1cc(CC(=O)NC(CC(C)C)c2cc(CC(NC(C)=O)C(=O)O)on2)ccc1NC(=O)Nc1ccccc1C (configuration not stated), the melting point is reported as 123 to 125 °C.
CCOC(=O)c1c(C(F)(F)F)nc(C(F)(F)Cl)c(C(=O)OC)c1N(CC)CC showed a melting point of 31.5 to 33 °C.
N#Cc1nn(-c2c(Cl)cc(C(F)(F)F)cc2Cl)c(-n2cccn2)c1S(=O)(=O)C(F)(F)F showed a melting point of 191 to 193 °C.
For O=Cc1ccc(N(c2ccccc2)c2ccccc2)cc1, the melting point was 129 to 130 °C.
In the case of CCCCCCCCCCCCCCCCC(O)CNCCO (configuration not stated), the melting point is reported as 84.5 to 86 °C.
Work on CNC(=O)N(O)C(C)c1cc2ccccc2s1 (configuration not stated) yielded a melting point of 149 to 150 °C.
COC(=O)CC1CC(CCc2c(-c3ccc(F)cc3)c(-c3ccccc3)c(C(=O)Nc3ccc(C(=O)OC)cn3)n2C(C)C)OC(C)(C)O1 (configuration not stated) showed a melting point of 77 to 84 °C.
Molecule Cc1ccc(Cc2ccc(-c3ccccc3)cc2)cc1 has a melting point of 87 °C.
Cn1ccc(Nc2n[nH]c3c(OCCc4ccccn4)cc(-c4ncccc4Cl)cc23)n1 showed a melting point of 89 to 91 °C.
Work on Cn1ncnc1COc1nn2c(-c3ccccc3)nncc2c1-c1ccccc1 yielded a melting point of 185 °C.
COc1ccc(CNc2cc(N3CCCC3CO)ccc2C(=O)NCc2ncccn2)cc1Cl (configuration not stated) gave a melting point of 102 to 107 °C.
In the case of O=C1c2nccnc2C(O)N1c1ccc2ccc(Cl)nc2n1 (configuration not stated), the melting point is reported as 270 °C.
Molecule OCc1cccc2c1SC(c1ccccc1)=CC2 has a melting point of 120 to 122 °C.
CCCCCS(=O)(=O)NC(=O)/C(C)=C/c1ccc(OCCOC)cc1Oc1ncc(Cl)cc1Cl gave a melting point of 97 to 98 °C.
COC(=O)c1c(-c2ccc(F)cc2)nc(N)nc1C(C)C gave a melting point of 146 to 147 °C.
For C#CCN(C)c1nccc(Oc2ccc(NC(=O)c3cc(F)cc(N4CCOCC4)c3)c3ccccc23)n1, the melting point was 97 to 98 °C.
Work on Cc1cccc(NC(=O)NCC(=O)N(CC(=O)OC(C)(C)C)c2ccccc2C)c1 yielded a melting point of 133 °C.
For COc1ccc(-c2c(NC(=O)Nc3ccc(F)cc3F)cnc3ccc(Cl)cc23)c(OC)c1OC, the melting point was 120 to 122 °C.
CCCCN(Cc1ccc(-c2ccccc2-c2nnn[nH]2)cc1)c1nc(SC)ncc1C(=O)OCC gave a melting point of 161 to 163 °C.
In the case of Cc1cc(-c2cc(C(C)(C)C)[nH]n2)c(F)cc1Cl, the melting point is reported as 138 °C.
With CCCC(=Cc1cccc([N+](=O)[O-])c1)[N+](=O)[O-] the melting point was 45 to 47 °C.
In the case of CC(Cc1ccccc1)C1CC=C2C3=C(CCC21C)C1(C)CCC(O)CC1CC3 (configuration not stated), the melting point is reported as 156 to 157 °C.
With O=C1N[C@H](Cc2cccc(OCC(F)(F)F)c2)[C@H](c2ccc(F)cc2)O1 (racemic) the melting point was 148 to 149 °C.
Work on CS(=O)(=O)Nc1cc(NC(=O)CN2C(=O)c3ccccc3C2=O)ccc1Oc1ccccc1 yielded a melting point of 208 to 209 °C.
CC(=O)Oc1cccc2oc(C(=O)OCc3ccc(Cl)cc3)c(C)c12 gave a melting point of 95 to 100 °C.
Molecule CCc1oc2ccc(Cl)cc2c1C(=O)c1cc(Br)c(O)c(Br)c1 has a melting point of 126 to 128 °C.
COCCNC(=O)c1cc(F)cc(-c2cccc3cc(Cc4cc(F)cc(Cl)c4)sc23)c1 showed a melting point of 72 to 73 °C.
With Cc1cc2c(s1)CNCC2O (configuration not stated) the melting point was 120 °C.
COc1ccc(C(=O)Nc2ccc(F)cc2)cc1Nc1ccccc1 showed a melting point of 151 to 152 °C.
With CCOC(=O)c1cc2cc(NC(=O)OCc3ccccc3)ccc2nn1 the melting point was 205 °C.
With COc1ccc(C2(C=O)C=CC=CC2)cc1OCCCC1(c2noc3cc(F)ccc23)CCNCC1 (configuration not stated) the melting point was 140 to 141 °C.
In the case of CN1Cc2c(c3ccccc3c3ccccc23)C1, the melting point is reported as 122 to 123 °C.
Molecule CCCCCCC1=C(O)C(=O)CO1 has a melting point of 51 to 52 °C.
Molecule CCOC(=O)N1CCC(n2cnc(-c3ccc(F)cc3)c2-c2ccnc(NC)n2)CC1 has a melting point of 205 to 206 °C.
For CC(=O)Nc1ccc(Cn2cnc3c(-c4ccco4)ncnc32)cc1, the melting point was 278 to 280 °C.
O=C(Nc1ccccc1)N1C(=O)C2(CCCCC2)NC12CCCCC2 gave a melting point of 129 to 130 °C.
CC(=O)Nc1ncc2c(n1)-c1sc(NC(C)=O)nc1CC2 gave a melting point of over 310 °C.
In the case of COc1cc(OC)nc(NC(=O)NS(=O)(=O)c2ccccc2S(N)(=O)=O)n1, the melting point is reported as 192 to 193 °C.
CCc1ccc(CCOc2ccc(C=C3SC(=O)NC3=O)cc2)nc1 gave a melting point of 166 to 167 °C.
In the case of CCCNC(=O)C=Cc1ccc2ccn(Cc3ccc(C(=O)NS(=O)(=O)c4ccccc4C)cc3OC)c2c1, the melting point is reported as 240 to 242 °C.
Work on CC(C)c1ccccc1N1/C(=N\N=C/c2ccc(-c3ncn(-c4ccc(OC(F)(F)F)cc4)n3)cc2)SCC1C (configuration not stated) yielded a melting point of 201 to 204 °C.
For Nc1ccnn1-c1cccc(C(F)(F)F)c1, the melting point was 77 to 79 °C.
For CC1(C)CC(=O)CC(C)(C)c2cc(Br)ccc21, the melting point was 104 to 105 °C.
For Nc1nc(C(Br)Br)nc(C(Br)Br)n1, the melting point was 171 to 173 °C.
Molecule CNCCSC1=Cc2ccccc2Sc2ccc(O)cc21 has a melting point of 147 to 149 °C.
For COCc1nc2c(N)nc3ccccc3c2n1Cc1ccccc1, the melting point was 202 to 204 °C.
In the case of CC(=O)N[C@H]1CC[C@H](CCN2CCN(c3nccc4c3OCC4)CC2)CC1, the melting point is reported as 195 °C.
Cc1cc(-c2nc3cccnn3c2-c2ccnc(NC(=O)c3ccc4ncccc4c3)c2)ccc1F gave a melting point of 210 to 211 °C.
With CC(C)(C)C(=O)Oc1c(N2CCCC2)c(=O)n(-c2ccccc2)c2ncccc12 the melting point was 163 to 165 °C.
Molecule Cc1ccc(C)c(OCc2ccccc2C(=O)c2ccnn2C)c1 has a melting point of 88 to 89 °C.
C[Si]1(C)CCCCCCCCCCCCCC[Si](C)(C)O[Si](C)(C)CCCCCCCCCCCCCC[Si](C)(C)O1 showed a melting point of 97 °C.
In the case of CC(C)NCCCCCCOc1ccc(OCc2ccccc2)cc1, the melting point is reported as 47 to 49 °C.
Work on Cc1cc(N2CCNCC2)ccn1 yielded a melting point of 93 to 94 °C.
For COc1cc(C(=O)CCC(=O)O)ccc1O, the melting point was 174 to 175 °C.
Work on COC(=O)c1ccc(CBr)cc1O yielded a melting point of 73 to 75 °C.
NC(=NCC(F)(F)F)Nc1cncc(SCCCC(=O)Nc2ccccc2)n1 showed a melting point of 165 to 167 °C.
